This assay deals with HepG2 viability, CellTiter-Glo ATP luminescence, 72 h. Put plainly: HepG2 cell cytotoxicity, dose response, cytotoxicity control, CellTiter-Glo luminescence, cherry-pick, set 2 (AID 743395). (ATP-based viability assays read luminescence as a measure of living cells.)

Molecules are shown by their SMILES.

For `COc1ccc2[nH]c(C(=O)N/N=C/c3ccc(O)cc3O)cc2c1`, the AC35 was 3.37 µM.

Take `O=c1ccc2[n+]([O-])c3ccc(O)cc3oc-2c1`: the AC35 is 13.2 µM.

For the compound `CCc1ccc(OCc2n[nH]c(=S)n2C(C)CCCC(C)C)cc1` (configuration not stated), the AC35 is 13.9 µM.

With `COc1ccc(NC(=O)C2(C)Cc3c(-c4cccc(NC(C)=O)c4)ccnc3O2)cc1` (configuration not stated), the AC35 was 4.15 µM.

As to `COc1ccc(C2=NOC(C(=O)NCc3ccc(F)cc3)C2)cc1OC` (configuration not stated), the AC35 was 7.73 µM.

As for `COCC(=O)N1CC2(CCN(Cc3ccccc3)CC2)c2c([nH]c3cc(OC)ccc23)[C@H]1CO`, the AC35 was 5.27 µM.

For the compound `Oc1cccc(/C=N/Nc2ccc(Cl)nn2)c1O`, the AC35 is 7.7 µM.

As for `Cc1ccc(S(=O)(=O)N2CCCCC2CCNC(=O)C(=O)NCc2ccccc2)cc1` (configuration not stated), the AC35 was 12.5 µM.

Consider `O=C(NCc1ccccc1)C1Cc2c(-c3ccc(Cl)cc3)ccnc2O1` (configuration not stated), for which the AC35 is 9.8 µM.

With `COc1ccc(S(=O)(=O)Nc2ccc3c(c2)C(=O)N([C@H](C)CO)C[C@@H](C)[C@@H](CN(C)Cc2ccc(Cl)c(Cl)c2)O3)cc1`, the AC35 was 14.1 µM.

In the case of `Oc1ccc2ccccc2c1C=NNc1ccccn1`, the AC35 was 7.59 µM.

In the case of `CCCCC(=NCCc1c(C)[nH]c2ccc(OC)cc12)C1=C(O)CC(c2ccccc2)CC1=O` (configuration not stated), the AC35 was 8.11 µM.

For `Cc1ccnc(N2C(=O)c3cccc4c([N+](=O)[O-])ccc(c34)C2=O)c1`, the AC35 is 14.9 µM.

Regarding `CCCCNC(=O)C(=O)Nc1ccc2c(c1)N(S(=O)(=O)c1cccs1)CCC2`, the AC35 is 12.7 µM.

Regarding `COc1c(C=O)c2c(c(OC)c1OC)-c1ccc(OC)c(=O)cc1C(NC(C)=O)CC2` (configuration not stated), the AC35 is 3.12 µM.

Consider `CCC(=O)N1CC2(CCN(Cc3ccc(Cl)cc3)CC2)c2c(n(C)c3cc(OC)ccc23)[C@H]1CO`, for which the AC35 is 9.27 µM.

As for `COc1ccc(-c2ccc3c(c2)[C@H]2[C@H](CCN2S(=O)(=O)c2ccc(OC)cc2)[C@@H](CO)N3C)cc1`, the AC35 is 18.2 µM.

Take `COc1ccc(S(=O)(=O)N2CC[C@@H]3[C@@H](CO)Nc4ccc(-c5cccc(C#N)c5)cc4[C@@H]32)cc1`: the AC35 was 14 µM.

In the case of `COc1ccc2noc3c2c1C(=O)c1ccccc1-3`, the AC35 was 15.4 µM.

With `Cn1cccc1/C=C1\SC(=Nc2ccccc2)NC1=O`, the AC35 is 4.22 µM.

For the compound `C=C1SC(Nc2c(C)cc(C)cc2C)=NC12CCCCC2`, the AC35 is 17.2 µM.

In the case of `Cc1occc1C(=O)N/N=C/c1c(O)ccc2ccccc12`, the AC35 was 6.44 µM.

`COc1cc2c(cc1OC)C(C)N(C(=O)Nc1cc(C)cc(C)c1)CC2` (configuration not stated): the AC35 is 7.81 µM.

Take `Cc1cc(/C=N/n2c(COc3ccccc3C)nc3ccccc3c2=O)c(O)c([N+](=O)[O-])c1`: the AC35 was 8.05 µM.

Take `C[C@H]1CN([C@@H](C)CO)S(=O)(=O)c2ccc(C#Cc3ccc(F)cc3)cc2O[C@H]1CN(C)C(=O)NC1CCCCC1`: the AC35 is 11.9 µM.

In the case of `Cc1ccc2nc(-c3ccc4c(c3)OCCO4)cn2c1`, the AC35 is 8.36 µM.

For `COc1cccc(C(=O)Nc2sc3c(c2C#N)CCN(C(C)=O)C3)c1`, the AC35 was 11.6 µM.

Turning to `CCOc1ccc(-c2cc(C(=O)N3CCN(c4ccccn4)CC3)c3ccccc3n2)cc1`, the AC35 is 10.9 µM.

For the compound `Cc1cccc(N2CCN(Cc3cn(C)nc3-c3ccccc3F)CC2)n1`, the AC35 is 3.97 µM.

On to `CCC1=Nc2cc(C(=O)NCC3CCCO3)ccc2Sc2ccc(Cl)cc21` (configuration not stated), for which the AC35 is 10.6 µM.

As to `O=C(Nc1nc(-c2ccccn2)cs1)c1ccc(F)c(S(=O)(=O)N2CCOCC2)c1`, the AC35 was 11.3 µM.

On to `COc1cc(OC)c2c(-c3cccc(-c4cccc(N)c4)c3)cc(=O)oc2c1`, for which the AC35 was 13.4 µM.

With `O=C(c1ccc(Br)cc1)c1cc([N+](=O)[O-])ccc1N1CCOCC1`, the AC35 was 3.19 µM.

For `Cc1ccc(C(=O)N/N=C/c2cc(Br)ccc2O)cn1`, the AC35 was 17.8 µM.

Consider `O=C(N/N=C/c1cc(Br)cc(Cl)c1O)c1ccc2c(c1)OCO2`, for which the AC35 is 10.6 µM.

With `O=c1cc(-c2ccc(O)c(O)c2)oc2cc(O)cc(O)c12`, the AC35 was 19 µM.

For the compound `COc1cc(OC)c2c(-c3cccc(-c4sccc4C(C)=O)c3)cc(=O)oc2c1`, the AC35 was 7.12 µM.

Regarding `C/C(=N\Nc1ncnc2sc(C)c(C)c12)c1ccccn1`, the AC35 was 0.572 µM.

In the case of `CN(C)c1ccc(-[n+]2c(-c3ccccc3)cc(-c3ccccc3)cc2-c2ccccc2)cc1`, the AC35 is 3.01 µM.

With `Nc1ccn([C@@H]2O[C@H](CO)[C@@H](O)[C@@H]2O)c(=O)n1`, the AC35 was 7.89 µM.

On to `CC(C)CC#Cc1ccc([C@@H]2[C@@H](CO)N3CCCCN(C(=O)NC4CCCC4)C[C@H]23)cc1`, for which the AC35 is 9.9 µM.

Consider `CC(C)N1CCc2c(sc(NC(=O)c3ccc([N+](=O)[O-])o3)c2C(N)=O)C1`, for which the AC35 was 4.77 µM.

With `CC(=O)Nc1ccc2cc3ccc(NC(C)=O)cc3nc2c1`, the AC35 is 11.6 µM.

Take `Cc1cc(NCc2ccccn2)n2ncc(-c3ccccc3)c2n1`: the AC35 was 7.75 µM.

On to `CC(=O)NC(c1ccc(C(C)C)cc1)c1ccc2cccnc2c1O` (configuration not stated), for which the AC35 was 0.861 µM.

On to `COc1ccc(C(=O)NCCN(C)C)c2nc3ccccc3cc12`, for which the AC35 was 2.81 µM.

As to `CCc1c(C)nc2ncnn2c1NCCc1ccc(OC)cc1`, the AC35 was 11.5 µM.

Regarding `O=C(NCCOc1ccccc1F)c1cc([N+](=O)[O-])ccc1N1CCOCC1`, the AC35 is 13.6 µM.

With `CCOc1ccc(C(=O)O/N=C(\N)c2ccccn2)cc1`, the AC35 was 16.5 µM.

Turning to `O=[N+]([O-])c1ccc(N=Nc2c(Cl)cc(O)cc2Cl)cc1`, the AC35 is 4.24 µM.

Take `COc1ccc(C(=O)c2ccc(N(C)C)cc2)c(OC)c1`: the AC35 is 14.9 µM.

As to `COc1cccc(S(=O)(=O)N2C[C@@H]3N[C@H](C2)C3c2ccc(-c3cccc(C)c3)cc2)c1` (some centres not stated), the AC35 is 12 µM.

For the compound `COc1ccc(NC(=O)C(=O)NCC2CCCN2S(=O)(=O)c2cccs2)cc1` (configuration not stated), the AC35 was 12.8 µM.

As for `COc1ccc(/C(C)=N/NC(=O)c2cccc(S(=O)(=O)N3CCCC3)c2)c(O)c1`, the AC35 is 0.944 µM.

Take `Cc1cccc(N2CCN(S(=O)(=O)c3cc(-c4cc(C)no4)ccc3C)CC2C)c1` (configuration not stated): the AC35 was 17.4 µM.

For `Cc1ccc(C2(C)NC(=O)N(CC(=O)Nc3nc(-c4ccccn4)cs3)C2=O)cc1` (configuration not stated), the AC35 is 4.46 µM.

`CC1(Cc2ccc(F)cc2)C(=O)Nc2c(Cl)ccc(Cl)c21` (configuration not stated): the AC35 is 12 µM.

With `CCN(CC)CCCNc1nc2ccccc2c2nc(-c3ccncc3)nn12`, the AC35 is 7.23 µM.

Consider `COc1ccc(S(=O)(=O)N(C(=O)C(C)C)c2ccc3oc(=O)sc3c2)cc1`, for which the AC35 is 17.1 µM.

Regarding `O=c1c2ccccc2oc2cc(-c3ccc4[nH]ccc4c3)ccc12`, the AC35 was 4.72 µM.

Take `CN1c2ccc(-c3ccc(F)cc3)cc2[C@H]2[C@H](CCN2S(=O)(=O)c2ccc(F)cc2)[C@H]1CO`: the AC35 is 19.5 µM.

For the compound `O=C(C[C@@H]1CC[C@@H]2[C@H](COC[C@H](O)CN2Cc2ccc(Oc3ccccc3)cc2)O1)N1CCN(c2ccccc2)CC1`, the AC35 is 7.84 µM.

`Cc1nn2cc(-c3cccc(Cl)c3)cnc2c1Br`: the AC35 was 11.1 µM.

In the case of `O=C(NCc1ccccc1)C1Cc2c(-c3cccc(F)c3)ccnc2O1` (configuration not stated), the AC35 was 22.1 µM.

On to `Cc1cccc(NS(=O)(=O)c2ccc(-c3cnc(C4CC4)o3)cc2)c1`, for which the AC35 was 5.11 µM.

For `CCOC(=O)c1c(NC(=O)C(=O)N/N=C/c2ccccc2O)sc2c1CCCCC2`, the AC35 is 13.7 µM.

For the compound `CO/N=C\CC(=O)Nc1ccc(Cl)cc1Cl`, the AC35 is 16.1 µM.

These data come from PubChem BioAssay AID743395 (Broad Institute, 2014).
